In US9642819B2, “Low dosage serotonin 5-HT2A receptor agonist to suppress inflammation” (BOARD OF SUPERVISORS OF LOUISIANA STATE UNIVERSITY AND …, priority 2008, dated 2017):
“Also recorded” adds a separate entry of the source. Read-outs that look alike come from different tables or passages of the source.

How the values were obtained:
[1] = tested on: ICAM-1, VCAM-1, and IL-6 gene expression; assay: TNF-α induced proinflammatory gene expression (ICAM-1, VCAM-1, IL-6) by Q-RT-PCR in RASM cells; type: cell-based, rat
Method: (§1) RASM cells and treatment. Rat aortic smooth muscle (RASM) cells were isolated from adult 180 g male Sprague-Dawley rats and provided by the Cell and Molecular Core Facility in the Department of Pharmacology at LSUHSC-NO. Isolated RASM cells were grown in M-199 media containing 10% fetal bovine serum (Gibco), 100 units/mL penicillin, and 100 µg/mL streptomycin, and incubated at 37° C. in 5% CO2. Cells for all assays were used between passages 3 and 5. Prior to treatments, cells were grown in M-199 media with 10% fetal bovine serum (FBS) until 30-50% confluent. For most assays, cells were treated with (R)-DOI, or other drugs as indicated, at specific concentrations for 24 hours, followed by TNF-α (10 ng/ml) and (R)-DOI at the same pretreatment concentrations in fresh M-199 media. After another 24 hours, the cells were scraped, pelleted, and processed for RNA.
(§2) RNA isolation and Quantitative Realtime-PCR. RNA was extracted from cells using Illustra RNAspin Mini kits from GE Healthcare Life Sciences (Piscataway, N.J.) following protocols supplied by the manufacturer. First strand cDNA was generated using the ImProm-II cDNA synthesis kit (Promega) following the manufacturers protocols. Q-RT-PCR was performed using the ProbeLibrary system from Roche (Indianapolis, Ind.) in combination with the HotStart-IT probe qpcr master mix from USB Biological (Cleveland, Ohio) following manufactures protocols.
(§3) Primers were synthesized by IDT (Coralville, Iowa). ProbeLibrary probes from Roche were: U3, U74, U13, U106, U79 for 5-HT2AR, ICAM-1, VCAM-1, IL-6, and cyclophillin B, respectively. Quantitative determination of gene expression levels using a 2-step cycling protocol was performed on a MyIQ-5 Cycler (Bio-Rad, Hercules Calif.). Relative gene expression levels were calculated using the 2^[−ΔΔC(T)] method. Levels of all targets from the test samples were normalized to rat cyclophillin B expression.
(§4) To examine the effects of 5-HT2A receptor activation on TNF-α mediated proinflammatory gene expression, RASM cells were pretreated with (R)-DOI, a selective 5-HT2 receptor agonist, as described above. Dose-response curves were determined for the effects on ICAM-1, VCAM-1, and IL-6 gene expression for twelve different concentrations of (R)-DOI ranging from 0.1 pM to 100 nM, with each experiment repeated in triplicate. In FIGS. 1A-1C, the Y-axis represents a percent of TNF-α for the dose of (R)-DOI indicated on the X-axis.

ICAM-1 gene expression [2] = assay: TNF-α induced ICAM-1 gene expression in primary rat aortic smooth muscle cells; type: cell-based; settings: for IC50: Rattus norvegicus
Method: as §1, §2, §3, §4

ICAM-1 gene expression [3] = assay: LPS stimulated ICAM-1 gene expression in primary rat aortic smooth muscle cells; type: cell-based; settings: 60 minute pretreatment, 100 nM
Method: All treatments with 5-HT2A receptor agonists occurred 1 hour prior to the addition of TNF-alpha (10 ng/ml) or LPS (100 ng or […]) depending on the experiment. All RNA isolations, cDNA synthesis, QPCR gene expression assays examining ICAM1, VCAM1, and IL6, and data analysis were performed as described above in Example 1, except the primers were different for the human cell experiment. The human gene PCR primer sequences and universal probe numbers were as follows: cyclophillin (control amplicon; Probe U64): forward primer, 5′-[…]-3′ (SEQ ID NO: 11), reverse primer, 5′-[…]-3′ (SEQ ID NO: 12); and human ICAM-1 (Probe U71, intracellular adhesion molecule 1): forward primer, 5′-[…]-3′ (SEQ ID NO: 13), reverse primer, 5′-[…]-3′ (SEQ ID NO: 14).
The effect of (R)-DOI (60 minute pretreatment) on the expression of ICAM-1 in primary rat aortic smooth muscle cells after stimulation with LPS was examined. […] At a higher dose of LPS (1 μg), there was no effect of (R)-DOI on the increase in ICAM-1.

5-HT2A receptor = 5-HT2A receptor (Rattus norvegicus, UniProt P14842); settings: read-out: EC50 phosphoinositide turnover; standard pharmacological assay of 5-HT2A receptor activity; cited from earlier work
ICAM-1 gene expression [4] = assay: TNF-α induced ICAM-1 gene expression in rat C6 glioma cells; type: cell-based; settings: 1 nM and 50 nM prior to TNF-α
Method: Experiments were conducted to analyze for the effect of 5-HT2A receptor activation on proinflammatory marker expression in other cell types. Human neuroblastoma cells (SHSY5Y) and rat glioma cells (C6) can be obtained from the American Type Culture Collection (Manassas, Va.), but were provided Purdue University. The cells were grown in DMEM+10% FBS. DMEM was made and provided by the Cell and Molecular Core of the Mentoring in Cardiovascular Biology COBRE center at LSUHSC-NO. FBS was purchased from Invitrogen (Carlsbad, Calif.). Primary rat aortic endothelial cells were prepared fresh and provided by the Cell and Molecular Core of the Mentoring in Cardiovascular Biology COBRE center at LSUHSC-NO. Cells were tested at passages 3-4. Cells were grown in endothelial cell growth medium (Cell Applications, Inc.). Primary rat bronchoaveolar macrophage cells were obtained by lung lavage from rats and used at day 3 or 4 post plating in DMEM+10% FBS.
All treatments with 5-HT2A receptor agonists occurred 1 hour prior to the addition of TNF-alpha (10 ng/ml) or LPS (100 ng or 1 mg) depending on the experiment. All RNA isolations, cDNA synthesis, QPCR gene expression assays examining ICAM1, VCAM1, and IL6, and data analysis were performed as described above in Example 1, except the primers were different for the human cell experiment. […]

Chain of 5-HT2A receptor (P14842 whole entry): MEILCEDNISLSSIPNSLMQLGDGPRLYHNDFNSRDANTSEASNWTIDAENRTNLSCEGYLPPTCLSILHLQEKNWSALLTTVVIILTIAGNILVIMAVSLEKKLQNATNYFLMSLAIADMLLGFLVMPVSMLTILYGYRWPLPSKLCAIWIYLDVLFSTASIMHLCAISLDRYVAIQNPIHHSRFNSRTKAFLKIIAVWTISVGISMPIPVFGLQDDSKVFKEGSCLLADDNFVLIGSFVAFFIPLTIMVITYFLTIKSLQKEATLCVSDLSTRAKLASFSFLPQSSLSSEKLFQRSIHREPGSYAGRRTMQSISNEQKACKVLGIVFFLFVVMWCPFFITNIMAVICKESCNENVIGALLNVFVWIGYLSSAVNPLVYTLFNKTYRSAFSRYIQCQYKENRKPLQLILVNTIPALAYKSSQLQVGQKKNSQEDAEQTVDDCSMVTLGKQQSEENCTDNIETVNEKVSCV

COc1cc(C[C@@H](C)N)c(OC)cc1I [(R)-DOI, (R)-1-(2,5-dimethoxy-4-iodophenyl)-2-aminopropane]
effect of pretreatment on TNF-α induced increase in proinflammatory gene expression ([1]; 1 nM prior to TNF-α 10 ng/ml): completely blocked; also recorded: completely inhibits
IC50 ([1]; RASM cells, TNF-α 10 ng/ml, ICAM-1, VCAM-1, IL-6, read-out: IC50 for inhibition of TNF-α mediated proinflammatory markers): 0.01 to 0.02 nM
IC50 ([1]; Rattus norvegicus, RASM cells, TNF-α 10 ng/ml, ICAM-1, VCAM-1, IL-6, read-out: IC50 for inhibition of TNF-α mediated proinflammatory markers): ~0.02 nM
IC50 ([1]; Rattus norvegicus, read-out: IC50 in blocking TNF-α mediated inflammation): ~0.02 nM
potency of inhibiting inflammatory marker gene expression relative to any current drug on the market ([1]; greater): at least 100 times
potency relative to the more effective current anti-inflammatory agents ([1]; more potent): ~300 fold
effect of compound alone on baseline expression of ICAM-1, VCAM-1, IL-6 ([1]; without TNF-α, 1 nM): no effect
block of TNF-α induced ICAM1 gene expression at 1 nM (ICAM-1 gene expression [2]; 1 nM pretreatment, VCAM1 and IL6 identical): blocked gene expression
block of TNF-α effect on ICAM-1 expression with 24 hour and one hour pretreatments and simultaneous treatment (ICAM-1 gene expression [2]; 1 nM, TNF-α 10 ng/ml): completely blocked
IC50 (ICAM-1 gene expression [2]; RASM passage 4, media with FBS, 24 h pretreatment, TNF-α 10 ng/ml, read-out: IC50 for proinflammatory gene expression inhibition for ICAM-1): 0.0195 nM
IC50 (ICAM-1 gene expression [2]; RASM passage 4, serum starved for 8 hours, read-out: IC50 for ICAM-1 gene expression inhibition in serum-free media): 0.36 nM
effect on ICAM-1 induction by low dose of LPS (ICAM-1 gene expression [3]; LPS 100 ng): able to block the response
effect on ICAM-1 increase by higher dose of LPS (ICAM-1 gene expression [3]; LPS 1 μg): no effect
EC50 (5-HT2A receptor): 10 to 20 nM
effect on ICAM-1 gene expression in rat glioma cells (ICAM-1 gene expression [4]): blocked
